According to ChEMBL document CHEMBL2010717, “Design of oxobenzimidazoles and oxindoles as novel androgen receptor antagonists” (Bioorg Med Chem Lett, 2012):
≈ marks a conversion by molar mass, not a printed value.

Tests used:
[1] = biological target: T1, Androgen receptor (Homo sapiens) (UniProt P10275); assay: Antagonist activity at androgen receptor in human LNAR cells expressing ARE-PSA-LUC at 1 uM by luminescence analysis in presence of R1881; type: functional, cell-based
T1 sequence (whole entry): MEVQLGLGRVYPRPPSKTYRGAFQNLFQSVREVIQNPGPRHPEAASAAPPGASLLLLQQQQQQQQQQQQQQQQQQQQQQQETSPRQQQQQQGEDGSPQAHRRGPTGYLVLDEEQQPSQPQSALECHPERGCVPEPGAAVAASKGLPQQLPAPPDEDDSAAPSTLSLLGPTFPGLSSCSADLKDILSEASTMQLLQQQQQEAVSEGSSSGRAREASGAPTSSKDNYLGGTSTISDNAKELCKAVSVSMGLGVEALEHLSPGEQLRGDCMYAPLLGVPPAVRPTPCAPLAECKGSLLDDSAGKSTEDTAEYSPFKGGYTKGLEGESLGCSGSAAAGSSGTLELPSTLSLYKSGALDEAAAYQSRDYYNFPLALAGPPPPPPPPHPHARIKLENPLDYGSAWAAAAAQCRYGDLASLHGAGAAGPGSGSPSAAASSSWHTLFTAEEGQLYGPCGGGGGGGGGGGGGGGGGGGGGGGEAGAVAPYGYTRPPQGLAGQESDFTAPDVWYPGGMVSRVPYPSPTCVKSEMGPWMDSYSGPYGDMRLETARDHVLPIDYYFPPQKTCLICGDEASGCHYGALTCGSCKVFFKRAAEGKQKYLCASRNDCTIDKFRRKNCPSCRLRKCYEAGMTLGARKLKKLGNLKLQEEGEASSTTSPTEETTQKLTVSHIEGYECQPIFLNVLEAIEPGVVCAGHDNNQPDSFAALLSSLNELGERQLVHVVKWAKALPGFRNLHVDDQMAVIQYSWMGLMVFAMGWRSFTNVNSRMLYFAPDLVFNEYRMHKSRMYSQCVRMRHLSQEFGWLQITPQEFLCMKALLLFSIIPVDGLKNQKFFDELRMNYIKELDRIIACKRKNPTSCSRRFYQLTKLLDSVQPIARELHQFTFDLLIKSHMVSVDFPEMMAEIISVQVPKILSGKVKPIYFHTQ

[2] = biological target: T1, Androgen receptor (Homo sapiens); assay: Agonist activity at androgen receptor in human LNAR cells expressing ARE-PSA-LUC at 1 uM by luminescence analysis relative to RD-162; type: functional, cell-based
[3] = Aqueous solubility of the compound; type: physicochemical
Androgen receptor = biological target: T2, Androgen receptor (Homo sapiens, UniProt P10275); assay: Antagonist activity at androgen receptor in human LNAR cells expressing ARE-PSA-LUC by luminescence analysis in presence of R1881; type: functional, cell-based
T2 sequence (P10275 whole entry): T1 sequence (whole entry)

[4] = Metabolic stability in human liver microsomes assessed as extraction ratio; type: ADME, Microsome; conditions: read-out: ERH

Compound | inhibition [1] [%] | fold change (FC) [2] | solubility ([3]; aqueous, read-out: solubility) [µM] | IC50 (Androgen receptor) [nM] | solubility ([3]; buffer) [µM] | hepatic extraction ratio [4]
CC1(C)C(=O)N(c2ccc(C#N)c(C(F)(F)F)c2)c2ccccc21 | 75.7 | 1.96 | – | – | – | –
CNC(=O)c1ccc(Cn2c(=O)n(-c3ccc(C#N)c(C(F)(F)F)c3)c3ccccc32)cc1F | 72.5 | 1.08 | 9.9 (≈ 4.64 µg/mL) | – | – | –
CC(c1nc(-c2ccccn2)no1)n1c(=O)n(-c2ccc(C#N)c(Cl)c2)c2ccccc21 (single isomer, unassigned; (+)) [listing 1 of 2 here] | – | – | 9.45 (≈ 4.19 µg/mL) | 178 | – | –
N#CCn1c(=O)n(-c2ccc(C#N)c(C(F)(F)F)c2)c2ccccc21 | 94.8 | 1.42 | 18.9 (≈ 6.47 µg/mL) | – | – | –
N#Cc1ncc(-n2c(=O)n(Cc3ccccc3)c3cccnc32)cc1C(F)(F)F | 96.3 | 1.1 | 1.7 (≈ 0.672 µg/mL) | – | – | –
CNC(=O)c1ccc(-n2c(=O)n(-c3ccc(C#N)c(C(F)(F)F)c3)c3ccccc32)cc1F | 28.7 | 1.44 | 8.81 (≈ 4 µg/mL) | – | – | –
N#Cc1ccc(-n2c(=O)n(Cc3cccnc3)c3ccccc32)cc1C(F)(F)F | – | 0.984 | 2.5 (≈ 0.986 µg/mL) | 389 | – | –
N#Cc1ccc(-n2c(=O)n(Cc3ccccc3)c3ncccc32)cc1C(F)(F)F | – | 0.951 | – | 588 | – | –
CC(c1nc(-c2ccccn2)no1)n1c(=O)n(-c2ccc(C#N)c(Cl)c2)c2ccccc21 (single isomer, unassigned; (+)) [listing 2 of 2 here] | – | 0.874 | – | – | – | –
N#Cc1ccc(-n2c(=O)n(Cc3ccccn3)c3ccccc32)cc1C(F)(F)F | – | 1.03 | 12 (≈ 4.73 µg/mL) | 301 | – | –
COc1cc(N2C(=O)C(C)(C)c3cc(-c4cccnc4OC)ccc32)ccc1C#N | – | 1.04 | 9.8 (≈ 3.91 µg/mL) | 79.6 | – | –
CC(c1ccccc1)n1c(=O)n(-c2ccc(C#N)c(C(F)(F)F)c2)c2ccccc21 (single isomer, unassigned; (+)) [listing 1 of 2 here] | – | – | – | 292 | 4.41 (≈ 1.8 µg/mL) | –
CNC(=O)c1ccc(-c2ccc3c(c2)C(C)(C)C(=O)N3c2ccc(C#N)c(OC)c2)cc1F | – | 0.884 | 9.7 (≈ 4.3 µg/mL) | 165 | – | < 0.25
N#Cc1ccc(-n2c(=O)n(Cc3nc(-c4ccccn4)no3)c3ccccc32)cc1Cl | – | 0.941 | 5.9 (≈ 2.53 µg/mL) | 126 | – | –
CNC(=O)c1ccc(-c2ccc3c(c2)C(C)(C)C(=O)N3c2ccc(C#N)c(C(F)(F)F)c2)cc1F | – | 0.941 | 6.25 (≈ 3.01 µg/mL) | 197 | – | 0.4
CC(c1ccccc1)n1c(=O)n(-c2ccc(C#N)c(C(F)(F)F)c2)c2ccccc21 (stereo in doubt; (-)-20) [listing 1 of 2 here] | – | – | 5.58 (≈ 2.27 µg/mL) | 363 | – | –
CC(c1ccccc1)n1c(=O)n(-c2ccc(C#N)c(C(F)(F)F)c2)c2ccccc21 (single isomer, unassigned; (+)) [listing 2 of 2 here] | – | 0.904 | – | – | – | –
N#Cc1ncc(-n2c(=O)n(Cc3ccccc3)c3ccccc32)cc1C(F)(F)F | 91 | 1.04 | 5.3 (≈ 2.09 µg/mL) | – | – | –
CC(c1nc(-c2ccccn2)no1)n1c(=O)n(-c2ccc(C#N)c(Cl)c2)c2ccccc21 (stereo in doubt; (-)-23) [listing 1 of 2 here] | – | – | – | 189 | – | –
CC(C)n1c(=O)n(-c2ccc(C#N)c(C(F)(F)F)c2)c2ccccc21 | – | 0.965 | 9.3 (≈ 3.21 µg/mL) | 373 | – | –
Cc1ccc(-n2c(=O)n(-c3ccc(C#N)c(C(F)(F)F)c3)c3ccccc32)cc1 | 12.6 | 0.88 | 0.79 (≈ 0.311 µg/mL) | – | – | –
CC(c1nc(-c2ccccn2)no1)n1c(=O)n(-c2ccc(C#N)c(Cl)c2)c2ccccc21 (stereo in doubt; (-)-23) [listing 2 of 2 here] | – | 0.945 | – | – | – | –
N#Cc1ccc(-n2c(=O)[nH]c3ccccc32)cc1C(F)(F)F | 60.1 | 6.2 | 7.9 (≈ 2.4 µg/mL) | – | – | –
N#Cc1ccc(-n2c(=O)n(Cc3ccccc3)c3ccccc32)cc1C(F)(F)F | – | 1.04 | < 0.16 | 170 | – | –
CCn1c(=O)n(-c2ccc(C#N)c(C(F)(F)F)c2)c2ccccc21 | – | 1.08 | 3.47 (≈ 1.15 µg/mL) | 293 | – | –
N#Cc1ccc(-n2c(=O)n(Cc3ccccc3)c3cccnc32)cc1C(F)(F)F | – | 1.13 | < 0.5 | 60.6 | – | –
CC(c1ccccc1)n1c(=O)n(-c2ccc(C#N)c(C(F)(F)F)c2)c2ccccc21 (stereo in doubt; (-)-20) [listing 2 of 2 here] | – | 0.833 | – | – | – | –
